Assay results published in US20230026869A1, “CRYSTAL FORM OF NUCLEOPROTEIN INHIBITOR AND USE THEREOF” (CHIA TAI TIANQING PHARMACEUTICAL GROUP CO., LTD., priority 2019, published 2023).

Assay: Study on solid stability of crystal form P (high temperature, high humidity, light, accelerated conditions; XRPD and HPLC)
Assay type: physicochemical
Method: In order to evaluate the solid stability of the crystal form P, the crystal form P was investigated for influence factors (high temperature, high humidity and light), stability under accelerated conditions and stability under intermediate conditions. The crystal form P was placed at high temperature (60° C., closed), high humidity (room temperature, 92.5% RH, sealing film wrapping and pricking 5-10 small holes) for 5 days and 10 days, then placed under visible light and ultraviolet light (a light-shielding control group was wrapped by tinfoil paper) according to ICH conditions (visible light illumination reached 1.2E+06 Lux hrs, ultraviolet light illumination reached 200 W·hrs/m) in a closed manner, and meanwhile, placed with stability under accelerated conditions ([…]/75% RH, sealing film wrapping and pricking 5-10 small holes) for 10 days and 1-2 months.

[1] = 92.5% RH, room temperature, Day 5
[2] = 92.5% RH, room temperature, Day 10
[3] = Light-shielding control group, taken simultaneously with the visible light + ultraviolet groups
[4] = Light-shielding control group, taken simultaneously with the visible light group
[5] = Visible + ultraviolet (ICH), illumination reaches 200 W · hrs/m^2
[6] = Visible light (ICH), illumination reaches 1.2E+06 Lux · hrs

**Q.** What does the source list for `CC1(NC(=O)C(=O)c2c(Cl)c(C(=O)Nc3cc(F)c(F)c(F)c3)c3n2CCC3)CCC(CC(=O)O)CC1` (centres unmarked) [crystal form P]?
**A.** Crystal form change (60° C., closed, Day 5): Unchanged; Relative purity (60° C., closed, Day 5): 100.0%; Crystal form change (60° C., closed, Day 10): Unchanged; Relative purity (60° C., closed, Day 10): 100.0%; Crystal form change (60° C./75% RH, 1 month): Unchanged; Relative purity (60° C./75% RH, 1 month): 100.0%; Crystal form change (60° C./75% RH, Day 10): Unchanged; Relative purity (60° C./75% RH, Day 10): 100.0%; Crystal form change (60° C./75% RH, Month 2): Unchanged; Relative purity (60° C./75% RH, Month 2): 100.0%; Crystal form change [1]: Unchanged; Relative purity [1]: 100.0%; Crystal form change [2]: Unchanged; Relative purity [2]: 100.0%; Crystal form change [3]: Unchanged; Relative purity [3]: 100.0%; Crystal form change [4]: Unchanged; Relative purity [4]: 99.9%; Crystal form change [5]: Unchanged; Relative purity [5]: 100.0%; Crystal form change [6]: Unchanged; Relative purity [6]: 100.0%; Crystal form change (under all stability conditions): unchanged
